Assay results published in ChEMBL document CHEMBL1201862, “PubChem BioAssay data set” (2004).
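1) Cells in 96-well plates. 2) Compound, 48 h, 5 concentrations. 3) Linear interpolation between surrounding doses. 4) Unreached endpoint = highest concentration. GI50 = concentration required for 50% inhibition of growth.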 The source made the active and inactive calls. Rule as the data show it: active = GI50 up to about 1.1 µM and inactive = higher.

Assays:
Test in all cases: NCI anticancer screen, dose series, 48 h
786-0 = test system: 786-0
ACHN = test system: ACHN
HCT-15 = test system: HCT-15
HL-60 = test system: HL-60
HOP-62 = test system: HOP-62
HOP-92 = test system: HOP-92
K562 = test system: K562
KM12 = test system: KM12
LXFL 529 = test system: LXFL 529
MOLT-4 = test system: MOLT-4
NCI-H23 = test system: NCI-H23
NCI-H522 = test system: NCI-H522
OVCAR-3 = test system: OVCAR-3
OVCAR-4 = test system: OVCAR-4
OVCAR-8 = test system: OVCAR-8
SK-OV-3 = test system: SK-OV-3
SN12C = test system: SN12C
SW-620 = test system: SW-620

Measured: GI50

CN(C)c1ccc(/C=c2\sc3nnc(Cc4ccccc4)n3c2=O)cc1
inactive: 786-0 > 10 µM | ACHN 75.3 µM | HL-60 > 10 µM | HOP-62 > 10 µM | HOP-92 > 100 µM | K562 > 10 µM | KM12 > 10 µM | LXFL 529 > 10 µM | MOLT-4 > 10 µM | NCI-H23 > 10 µM | NCI-H522 > 10 µM | OVCAR-3 > 10 µM | OVCAR-4 > 10 µM | OVCAR-8 > 10 µM | SK-OV-3 > 10 µM | SN12C > 10 µM | SW-620 13.7 µM
20.2 µM: HCT-15

CC(C)N(C(=O)c1cccc(C(=O)N(C(C)C)C(C)C)c1)C(C)C
inactive: 786-0 > 100 µM | ACHN > 100 µM | HL-60 > 100 µM | HOP-62 > 100 µM | HOP-92 > 100 µM | K562 > 100 µM | KM12 > 100 µM | LXFL 529 > 100 µM | MOLT-4 > 100 µM | NCI-H23 > 100 µM | NCI-H522 > 100 µM | OVCAR-3 > 100 µM | OVCAR-4 > 100 µM | OVCAR-8 > 100 µM | SK-OV-3 > 100 µM | SN12C > 100 µM | SW-620 12.8 µM
> 100 µM: HCT-15

N=C(N)NS(=O)(=O)c1ccc(NCCc2c3ccccc3nc3ccccc23)cc1
inactive: 786-0 > 100 µM | ACHN > 100 µM | HL-60 19.4 µM | HOP-62 > 100 µM | HOP-92 > 100 µM | K562 51.1 µM | KM12 > 100 µM | LXFL 529 > 100 µM | MOLT-4 22.8 µM | NCI-H23 > 10 µM | NCI-H522 > 100 µM | OVCAR-3 > 100 µM | OVCAR-4 1.31 µM | OVCAR-8 > 100 µM | SK-OV-3 > 100 µM | SN12C > 100 µM | SW-620 > 100 µM
> 100 µM: HCT-15

CC(C)Cc1ccc(C(C)/C=C2\CCC(CN3CCCC3)C2=O)cc1 (stereo not drawn)
4.06 µM: HCT-15
inactive: 786-0 1.85 µM | ACHN 11.7 µM | HL-60 1.89 µM | HOP-62 12.3 µM | HOP-92 19.1 µM | K562 3.91 µM | KM12 2.77 µM | LXFL 529 2.15 µM | MOLT-4 2.67 µM | NCI-H23 11.5 µM | NCI-H522 1.31 µM | OVCAR-3 3.69 µM | OVCAR-4 13.3 µM | OVCAR-8 7.01 µM | SK-OV-3 19.6 µM | SN12C 3.97 µM | SW-620 7.18 µM

O=C(CC1(O)C(=O)Nc2c(Cl)cc(Cl)cc21)c1ccc2ccccc2c1 (stereo not drawn)
inactive: 786-0 10.2 µM | ACHN 14.4 µM | HL-60 3.18 µM | HOP-62 7.83 µM | HOP-92 21.4 µM | K562 3.18 µM | KM12 5.92 µM | LXFL 529 9.16 µM | MOLT-4 6.24 µM | NCI-H23 7.33 µM | NCI-H522 2.92 µM | OVCAR-3 6.18 µM | OVCAR-4 13.6 µM | OVCAR-8 10.6 µM | SK-OV-3 10.4 µM | SN12C 10.4 µM | SW-620 3.66 µM
3.62 µM: HCT-15

CN(CC#N)C1CCCC[C@H]1O (stereo partly drawn)
> 100 µM: HCT-15
inactive: 786-0 > 100 µM | ACHN > 100 µM | HL-60 > 100 µM | HOP-62 > 100 µM | HOP-92 > 100 µM | K562 > 100 µM | KM12 > 100 µM | LXFL 529 > 100 µM | MOLT-4 > 100 µM | NCI-H23 > 100 µM | NCI-H522 > 100 µM | OVCAR-3 > 100 µM | OVCAR-4 > 100 µM | OVCAR-8 > 100 µM | SK-OV-3 > 100 µM | SN12C > 100 µM | SW-620 > 90.4 µM
